Experimental data: US8377974B2 (Millennium Pharmaceuticals, Inc., priority 2004, dated 2013)

Molecular target: T1, human plasma protein factor Xa (Homo sapiens, UniProt P00742)
T1 construct: measure proteolytic activity of the enzyme (factor Xa); purchased Haematologic Technologies (Essex Junction, Vt.); host or cells: human plasma
Assay: Factor Xa IC50 determination: cleavage of paranitroanilide substrate S-2765 in 96-well plates
Type: biochemical
Settings: fXa 1 nM, S-2765 100 μM, Tris buffered saline pH 7.4, room temperature
Method in brief: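 Initial rates of S-2765 (100 μM final) cleavage, read at 405 nm for 2 min, fitted with a four-parameter equation to give IC50. Enzyme: 1 nM human plasma fXa, 5 min room-temperature preincubation with inhibitor (0.01 nM–10 μM) in 20 mM Tris, 150 mM NaCl, 5 mM CaCl2, 0.1% BSA, 5% DMSO, pH 7.4; duplicates.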

T1 sequence (P00742 235-488 limits assumed): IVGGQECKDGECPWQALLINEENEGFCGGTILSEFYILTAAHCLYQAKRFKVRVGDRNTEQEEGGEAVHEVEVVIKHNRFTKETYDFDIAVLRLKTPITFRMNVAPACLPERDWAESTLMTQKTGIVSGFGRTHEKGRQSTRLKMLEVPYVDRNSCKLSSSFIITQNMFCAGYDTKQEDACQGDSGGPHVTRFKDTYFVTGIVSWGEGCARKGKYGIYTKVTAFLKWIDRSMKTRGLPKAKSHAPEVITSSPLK
T1 sequence (P00742 41-179 partner limits assumed): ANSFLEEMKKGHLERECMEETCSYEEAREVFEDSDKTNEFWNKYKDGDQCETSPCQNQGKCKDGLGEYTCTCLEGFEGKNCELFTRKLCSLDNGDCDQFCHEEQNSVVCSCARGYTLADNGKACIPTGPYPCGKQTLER

Row | SMILES | IC50
1 | N=C(c1ccc(-n2cc(CNC(=O)c3ccc(Cl)s3)nn2)cc1)N1CCCCC1 [Example 319, 5-Chloro-N-((1-(4-(imino(piperidin-1-yl)methyl)phenyl)-1H-1,2,3-triazol-4-yl)methyl)thiophene-2-carboxamide] | ≤ 100 nM
2 | N=C(c1ccc(C2=NOC(CNC(=O)c3ccc(Cl)s3)C2)c(N2CCCCCC2)c1)N1CCCC1 (stereo not drawn) [Example 92, 5-Chloro-thiophene-2-carboxylic acid {3-[2-azepan-1-yl-4-(imino-pyrrolidin-1-yl-methyl)-phenyl]-4,5-dihydro-isoxazol-5-ylmethyl}-amide] | ≤ 100 nM
3 | CN(C)C(=N)c1ccc(-c2cc(CNC(=O)c3ccc(Cl)s3)on2)cc1 [Example 21, 5-Chloro-thiophene-2-carboxylic acid {3-[4-(N,N-dimethyl-carbamimidoyl)-phenyl]-isoxazol-5-ylmethyl}-amide] | ≤ 100 nM
4 | O=C(NCC1CC(c2ccc(-c3cccnc3)cc2)=NO1)c1ccc(Cl)s1 (stereo not drawn) [Example 190, 5-Chloro-thiophene-2-carboxylic acid [3-(4-pyridin-3-yl-phenyl)-4,5-dihydro-isoxazol-5-ylmethyl]-amide] | 100 to 500 nM
5 | O=C(NCc1cn(-c2ccc(N3CCCCC3=O)cc2)nn1)c1ccc(Cl)s1 [Example 300, 5-Chloro-N-((1-(4-(2-oxopiperidin-1-yl)phenyl)-1H-1,2,3-triazol-4-yl)methyl)thiophene-2-carboxamide] | ≤ 100 nM
6 | COC(=O)c1cccc(Nc2ccc(C3=NOC(CNC(=O)c4ccc(Cl)s4)C3)cc2)c1 (stereo not drawn) [Example 261, 3-[4-(5-{[(5-Chloro-thiophene-2-carbonyl)-amino]-methyl}-4,5-dihydro-isoxazol-3-yl)-phenylamino]-benzoic acid methyl ester] | ≥ 500 nM
7 | N=C(c1ccc(-c2nc(CNC(=O)c3ccc(Cl)s3)cs2)cc1)N1CCCC1 [Example 352, 5-Chloro-N-((2-(4-(imino(pyrrolidin-1-yl)methyl)phenyl)thiazol-4-yl)methyl)thiophene-2-carboxamide] | ≤ 100 nM
8 | COc1cc(C(=N)N2CCCC2)ccc1-c1cc(CNC(=O)c2ccc(Cl)s2)on1 [Example 120, 5-Chloro-thiophene-2-carboxylic acid {3-[4-(imino-pyrrolidin-1-yl-methyl)-2-methoxy-phenyl]-isoxazol-5-ylmethyl}-amide] | ≤ 100 nM
9 | O=C(NCc1cc(-c2ccc(N3CCCC3)cc2)no1)c1ccc(Cl)s1 [Example 256, 5-Chloro-thiophene-2-carboxylic acid [3-(4-pyrrolidin-1-yl-phenyl)-isoxazol-5-ylmethyl]-amide] | ≥ 500 nM
10 | O=C(NCC1CC(c2ccc(Nc3ccnc4cc(C(F)(F)F)ccc34)cc2)=NO1)c1ccc(Cl)s1 (stereo not drawn) [Example 394, 5-Chloro-N-((3-(4-(7-(trifluoromethyl)quinolin-4-ylamino)phenyl)-4,5-dihydroisoxazol-5-yl)methyl)thiophene-2-carboxamide] | ≤ 100 nM
11 | CSc1cc(C2=NCCN2C)ccc1C1=NOC(CNC(=O)c2ccc(Cl)s2)C1 (stereo not drawn) [Example 137, 5-Chloro-thiophene-2-carboxylic acid {3-[4-(1-methyl-4,5-dihydro-1H-imidazol-2-yl)-2-methylsulfanyl-phenyl]-4,5-dihydro-isoxazol-5-ylmethyl}-amide] | ≤ 100 nM
12 | O=C(NCC1CC(c2ccc(Nc3ccncc3C(F)(F)F)cc2)=NO1)c1ccc(Cl)s1 (stereo not drawn) [Example 403, 5-Chloro-N-((3-(4-(3-(trifluoromethyl)pyridin-4-ylamino)phenyl)-4,5-dihydroisoxazol-5-yl)methyl)thiophene-2-carboxamide] | ≤ 100 nM
13 | O=C(NCc1cn(-c2ccc(-n3cc(F)ccc3=O)cc2)nn1)c1ccc(Cl)s1 [Example 298, 5-Chloro-N-((1-(4-(5-fluoro-2-oxopyridin-1(2H)-yl)phenyl)-1H-1,2,3-triazol-4-yl)methyl)thiophene-2-carboxamide] | ≤ 100 nM
14 | COc1cc(C2=NCCN2C)ccc1C1=NOC(CNC(=O)c2ccc(Cl)s2)C1 (stereo not drawn) [Example 103, 5-Chloro-thiophene-2-carboxylic acid {3-[2-methoxy-4-(1-methyl-4,5-dihydro-1H-imidazol-2-yl)-phenyl]-4,5-dihydro-isoxazol-5-ylmethyl}-amide] | ≤ 100 nM
15 | Nc1ccc(C2=NOC(CNC(=O)c3ccc(Cl)s3)C2)cc1 (stereo not drawn) [Example 160, 5-Chloro-thiophene-2-carboxylic acid [3-(4-amino-phenyl)-4,5-dihydro-isoxazol-5-ylmethyl]-amide] | ≥ 500 nM
16 | CN1CCN=C1c1ccc(-c2cccc(CNC(=O)c3ccc(Cl)s3)c2)cc1 [Example 381, 5-Chloro-N-((3-(4-(1-methyl-4,5-dihydro-1H-imidazol-2-yl)phenyl)phenyl)methyl)thiophene-2-carboxamide] | ≤ 100 nM
17 | C#CCN(C)C(=N)c1ccc(-c2cc(CNC(=O)c3ccc(Cl)s3)on2)cc1 [Example 33, 5-Chloro-thiophene-2-carboxylic acid {3-[4-(N-methyl-N-prop-2-ynyl-carbamimidoyl)-phenyl]-isoxazol-5-ylmethyl}-amide] | 100 to 500 nM

Row | SMILES | IC50
18 | COCCN(C)Cc1ccc(Cl)cc1-c1ccc(C2=NOC(CNC(=O)c3ccc(Cl)s3)C2)cc1 (stereo not drawn) [Example 206, 5-Chloro-thiophene-2-carboxylic acid [3-(5′-chloro-2′-{[(2-methoxy-ethyl)-methyl-amino]-methyl}-biphenyl-4-yl)-4,5-dihydro-isoxazol-5-ylmethyl]-amide] | 100 to 500 nM
19 | Cc1ccn(-c2ccc(C3=NOC(CNC(=O)c4ccc(Cl)s4)C3)cc2)c(=O)c1 (stereo not drawn) [Example 284, 5-Chloro-N-((3-(4-(4-methyl-2-oxopyridin-1(2H)-yl)phenyl)-4,5-dihydroisoxazol-5-yl)methyl)thiophene-2-carboxamide] | ≤ 100 nM
20 | COc1ccc(=O)n(-c2ccc(-n3cc(CNC(=O)c4ccc(Cl)s4)nn3)cc2)c1 [Example 297, 5-Chloro-N-((1-(4-(5-methoxy-2-oxopyridin-1(2H)-yl)phenyl)-1H-1,2,3-triazol-4-yl)methyl)thiophene-2-carboxamide] | ≤ 100 nM
21 | O=C(NCc1cc(-c2ccccc2)no1)c1ccc(Cl)s1 [Example 146, 5-Chloro-thiophene-2-carboxylic acid (3-phenyl-isoxazol-5-ylmethyl)-amide] | ≥ 500 nM
22 | CN1CCN=C1c1ccc(C2=NOC(CNC(=O)c3ccc(Cl)s3)C2)c(N2CCCCCC2)c1 (stereo not drawn) [Example 91, 5-Chloro-thiophene-2-carboxylic acid {3-[2-azepan-1-yl-4-(1-methyl-4,5-dihydro-1H-imidazol-2-yl)-phenyl]-4,5-dihydro-isoxazol-5-ylmethyl}-amide] | ≤ 100 nM
23 | CN(C)C(=N)c1ccc(-c2cc(CN(C)C(=O)c3ccc(Cl)s3)on2)cc1 [Example 35, 5-Chloro-thiophene-2-carboxylic acid {3-[4-(N,N-dimethyl-carbamimidoyl)-phenyl]-isoxazol-5-ylmethyl}-methyl-amide] | ≥ 500 nM
24 | COc1ccc(C2=NOC(C)(CNC(=O)c3ccc(Cl)s3)C2)cc1 (stereo not drawn) [Example 151, 5-Chloro-thiophene-2-carboxylic acid [3-(4-methoxy-phenyl)-5-methyl-4,5-dihydro-isoxazol-5-ylmethyl]-amide] | ≥ 500 nM
25 | CC1(CNC(=O)c2ccc(Cl)s2)CC(c2ccc(C(=N)N3CCCCC3)cc2)=NO1 (stereo not drawn) [Example 60, 5-Chloro-thiophene-2-carboxylic acid {3-[4-(imino-piperidin-1-yl-methyl)-phenyl]-5-methyl-4,5-dihydro-isoxazol-5-ylmethyl}-amide] | ≤ 100 nM
26 | CN1CCN=C1c1ccc(-c2cc(CNC(=O)c3ccc(Cl)s3)on2)cc1 [Example 22, 5-Chloro-thiophene-2-carboxylic acid {3-[4-(1-methyl-4,5-dihydro-1H-imidazol-2-yl)-phenyl]-isoxazol-5-ylmethyl}-amide] | ≤ 100 nM
27 | COc1ccc(=O)n(-c2ccc(C3=NOC(CNC(=O)c4ccc(Cl)s4)C3)cc2)c1 (stereo not drawn) [Example 286, 5-Chloro-N-((3-(4-(5-methoxy-2-oxopyridin-1(2H)-yl)phenyl)-4,5-dihydroisoxazol-5-yl)methyl)thiophene-2-carboxamide] | ≤ 100 nM
28 | CSc1cc(C(=N)N(C)C)ccc1-c1cc(CNC(=O)c2ccc(Cl)s2)on1 [Example 140, 5-Chloro-thiophene-2-carboxylic acid {3-[4-(N,N-dimethyl-carbamimidoyl)-2-methylsulfanyl-phenyl]-isoxazol-5-ylmethyl}-amide] | ≤ 100 nM
29 | C#CCN(C)C(=N)c1ccc(C2=NOC(CNC(=O)c3ccc(Cl)s3)C2)cc1 (stereo not drawn) [Example 13, 5-Chloro-thiophene-2-carboxylic acid {3-[4-(N-methyl-N-prop-2-ynyl-carbamimidoyl)-phenyl]-4,5-dihydro-isoxazol-5-ylmethyl}-amide] | 100 to 500 nM
30 | O=C(NCc1cc(-c2ccc(Nc3ccncc3)cc2)no1)c1ccc(Cl)s1 [Example 254, 5-Chloro-thiophene-2-carboxylic acid {3-[4-(pyridin-4-ylamino)-phenyl]-isoxazol-5-ylmethyl}-amide] | ≤ 100 nM
31 | Cc1ccc(C2=NOC(CNC(=O)c3ccc(Cl)s3)C2)cc1 (stereo not drawn) [Example 147, 5-Chloro-thiophene-2-carboxylic acid (3-p-tolyl-4,5-dihydro-isoxazol-5-ylmethyl)-amide] | ≥ 500 nM
32 | CN(C)C(=N)c1ccc(-n2cc(CNC(=O)c3ccc(Cl)s3)cn2)cc1 [Example 325, N-((1-(4-(N,N-Dimethylcarbamimidoyl)phenyl)-1H-pyrazol-4-yl)methyl)-5-chlorothiophene-2-carboxamide] | ≤ 100 nM
33 | O=C(NCc1cc(-c2ccc(-c3cccc(CN4CCCC4)c3)cc2)no1)c1ccc(Cl)s1 [Example 212, 5-Chloro-thiophene-2-carboxylic acid [3-(3′-pyrrolidin-1-ylmethyl-biphenyl-4-yl)-isoxazol-5-ylmethyl]-amide] | ≥ 500 nM
